What was measured:
[1] = target: T1, purified human recombinant GK (Homo sapiens, UniProt P35557); experiment: Glucokinase activity assay (coupled enzymatic assay with G6PD, NADH absorbance at 340 nm); assay type: biochemical; settings: for EC50: EC50 of % change in S0.5 (% ΔS0.5) of glucokinase for glucose, sigmoidal fit; for Emax: Emax of % change in S0.5 (% ΔS0.5), vehicle control S0.5 = 0%, 0 mM glucose = 100%
T1 sequence (P35557 1-465): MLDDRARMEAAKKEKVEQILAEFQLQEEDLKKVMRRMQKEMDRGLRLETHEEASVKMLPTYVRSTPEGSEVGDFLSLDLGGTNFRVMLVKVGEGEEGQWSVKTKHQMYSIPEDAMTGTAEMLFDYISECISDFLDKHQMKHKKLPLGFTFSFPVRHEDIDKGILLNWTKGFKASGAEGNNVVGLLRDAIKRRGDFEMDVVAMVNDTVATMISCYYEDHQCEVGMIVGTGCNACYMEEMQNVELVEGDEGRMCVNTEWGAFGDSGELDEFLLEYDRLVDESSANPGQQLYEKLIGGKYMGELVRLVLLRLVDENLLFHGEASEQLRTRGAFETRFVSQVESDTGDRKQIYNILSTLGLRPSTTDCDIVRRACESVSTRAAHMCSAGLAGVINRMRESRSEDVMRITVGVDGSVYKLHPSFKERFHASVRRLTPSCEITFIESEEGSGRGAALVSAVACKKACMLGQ
Text: The glucokinase (GK) assay is a coupled enzymatic assay. GK catalyzes the first step of glycolysis, the conversion of glucose to glucose-6-phosphate (G6P) in the presence of ATP. G6P in turn is converted by glucose-6-phosphate dehydrogenase (G6PD) to 6-phosphogluconate, a process that requires NAD, resulting in NADH formation. Since the GK-catalyzed step is the rate-limiting step of this coupled enzymatic process, the rate of accumulation of 6-phosphogluconate and NADH is directly proportional to the rate of glucose phosphorylation by GK. The rate of the GK-catalyzed reaction can therefore be measured by monitoring the increase in NADH absorbance at 340 nm.
The assay is carried out according to the protocol outlined in Hariharan et al (1997), Diabetes 46: 11-16. Briefly, the test compounds are incubated in a reaction mix containing 25 mM HEPES (pH 7.2), 10 mM MgCl2, 100 mM KCl, 5 mM ATP, 2 mM DTT, 0.5 mM NAD, 1 U/ml Leuconostoc mesenteroides G6PD, 0.3 U/ml of purified human recombinant GK, and different concentrations of glucose. Enzymatic activity is calculated from the initial reaction velocity, measured from the change in NADH absorbance as a function of time.
Compounds described in formula (I), in concentration ranges from 1.0 nM to 500 µM, are tested in the purified human recombinant glucokinase assay described above.
A compound is considered to be a glucokinase activator if it, in its testable range of concentrations, yields a higher rate of glucose phosphorylation than in its absence at a particular glucose concentration, for example at 5 mM glucose.
Compounds of general formula (I) are tested in the in vitro GK enzymatic assay to monitor dose-dependent effect on glucokinase activation (in kinetic mode), as described above, at various glucose concentrations. The S0.5 of glucokinase for glucose at different concentration of each compound of interest is calculated from the following modified version of the Michaelis-Menten equation, V = Vmax [S]^n/(S0.5^n + [S]^n), where [S] is the glucose concentration and n is the Hill coefficient (taken as 1.7 to account for the sigmoidal kinetics of glucokinase with respect to glucose). The S0.5 is plotted against the log of the compound concentration. The change in the S0.5 of glucokinase (ΔS0.5) for glucose is calculated by subtracting the S0.5 at each concentration of the compound from the S0.5 in the vehicle control. The ΔS0.5 is then normalized to a percent scale, where the S0.5 in the vehicle control is set to 0% and 0 mM glucose is set to 100%. The % ΔS0.5 is then plotted against the log of the compound concentration. The EC50 and Emax of % change in S0.5 is obtained from the sigmoidal fit of the data. Detailed protocol has been described in our copending application no. 409/CHE/2007 which is incorporated herein by reference. Characterization data of some representative glucokinase activators of the present disclosure, which are illustrative but not limiting, are given in table I below.
The glucokinase activation data of some representative compounds of the present disclosure, which are illustrative but not to be construed as limiting the scope or spirit of the disclosure, are given in the table I below. Table I: EC50 and Emax (with respect to % ΔS0.5) of GK activators

[2] = system: primary rat hepatocytes; experiment: Measurement of glycogen synthesis in primary rat hepatocytes; assay type: cell-based, male Wistar rats; settings: 10 µM compound, 10 mM glucose, 3 hours at 37°C, fold increase over DMSO control
Experimental: Primary hepatocytes are collected from male Wistar rats, and tested for viability by trypan blue exclusion. Primary hepatocytes cultures with viability greater than 95% are selected for the glycogen synthesis assay. The cells are seeded in a 48-well plate at a density of 200,000 cells/well in 250 µl Minimal Essential Medium (MEM) containing 10% foetal calf serum (FCS) and 1.7 µM insulin, and incubated for 4 hours at 37°C to allow attachment. The medium is replaced with fresh MEM containing 10% FCS, 1.7 µM insulin and 10 nM dexamethasone, and the cells are incubated for 16 hours at 37°C. The medium is then replaced with fresh MEM (serum-free) containing 2 µCi/ml of D-[U^14C]-Glucose along with 10 µM of the compound in a final DMSO concentration of 0.1%. The final glucose concentration is brought to 10 mM by the addition of D-Glucose (MEM already contains 5 mM glucose). The cells are incubated for 3 hours at 37°C. The cells are washed twice with 150 mM NaCl, lysed with 0.1 N NaOH, and the lysate precipitated with 8% w/v trichloroacetic acid (TCA) and 1 mg/well unlabeled glycogen as carrier. Cell debris is pelleted by centrifugation, the supernatant is removed, and the glycogen is precipitated with 63% ethanol. After another round of centrifugation, the supernatant is removed, and the pellet containing the precipitated glycogen is dried overnight. De novo synthesized glycogen is estimated in a scintillation counter (MicroBeta Trilux, Perkin Elmer), and expressed as fold increase over DMSO control.
The protocol for the glycogen assay is based on the method described in "Biochem J. 1990 Feb 15; 266(1): 91-102" with a few minor modifications. The protocol for isolation of primary rat hepatocytes is based on the method described in "Methods in Enzymology, Vol. III. pp 34-50. Ed. by S.P. Colowick and N.O. Kaplan. New York, Academic Press, 1957" with a few minor modifications.
Compounds described in formula (I), in concentration ranges from 1.0 nM to 500 µM, are tested in glycogen synthesis assay described above. […]

[3] = cited from earlier work

| Compound | EC50 [1] | Emax [1] | Fold increase in glycogen synthesis at 10 µM [2] | hypoglycemic potential ([3]; at higher dose, Fyfe, M. C. T. (2007) Diabetologia, 50: 1277-1287) | hypoglycemia ([3]; animal efficacy models, Kamata, K. et al (2004) Structure 12: 429-438) |
| --- | --- | --- | --- | --- | --- |
| O=C(O)c1ccc(Oc2cnc(NC(=O)C(O[C@@H]3CCOC3)c3ccc(S(=O)(=O)C4CC4)cc3)s2)cc1 (single isomer, unassigned) [Example D6A] | 0.022 µM | 88% | 11 fold | – | – |
| O=C(O)c1ccc(Oc2cnc(NC(=O)C(OC3CCOCC3)c3ccc(S(=O)(=O)C4CC4)cc3)s2)cc1 (single isomer, unassigned; (+)) [Example D4A, (+) 4-{2-[2-(4-Cyclopropanesulfonylphenyl)-2-(tetrahydro-pyran-4-yloxy)-acetylamino]-thiazol-5-yloxy}-benzoic acid] | 0.069 µM | 92% | – | – | – |
| COc1ccc2nc(NC(=O)C(OC3CCOCC3)c3ccc(S(=O)(=O)C4CC4)cc3)sc2n1 (single isomer, unassigned; (+)) [Example D9A, (+)2-(4-Cyclopropanesulfonyl-phenyl)-N -(5-methoxy-thiazolo[5,4-b]pyridin-2-yl)-2-(tetrahydro-pyran-4-yloxy)-Acetamide] | 0.068 µM | 95% | – | – | – |
| CCOc1ccc2nc(NC(=O)C(OC3CCOCC3)c3ccc(S(=O)(=O)C4CC4)cc3)sc2n1 (single isomer, unassigned; (+)) [Example D10A, (+)2-(4-Cyclopropanesulfonyl-phenyl)-N -(5-ethoxy-thiazolo[5,4-b]pyridin-2-yl)-2-(tetrahydro-pyran-4-yloxy)-a Cetamide] | 0.054 µM | 92% | – | – | – |
| O=C(O)c1ccc(Oc2cnc(NC(=O)C(Oc3ccc(F)cc3F)c3ccc(S(=O)(=O)C4CC4)cc3)s2)cc1 (single isomer, unassigned; (+)) [Example D11A, (+)4-{2-[2-(4-Cyclopropanesulfonylphenyl)-2-(2,4-difluoro-phenoxy)-acetylamino]-thiazol-5-yloxy}-benzoic acid] | 0.034 µM | 95% | 15.5 fold | – | – |
| O=C(Nc1nc2cccnc2s1)C(Oc1ccc(F)cc1F)c1ccc(S(=O)(=O)N2CCCCC2)cc1 (single isomer, unassigned; (-)) [Example D1A, (-)2-(2,4-Difluoro-phenoxy)-2-[4-(piperidine-1-sulfonyl)-phenyl]-N-thiazo lo[5,4-b]pyridin-2-yl-acetamide] | 0.084 µM | 85% | – | – | – |
| NC(=O)c1cccc(Oc2cnc(NC(=O)C(Oc3ccc(F)cc3F)c3ccc(S(=O)(=O)C4CC4)cc3)s2)c1 (stereo not shown) [Example C6, 3-{2-[2-(4-Cyclopropanesulfonyl-phenyl)-2-(2,4-difluorophenoxy)-acetylamino]-thiazol-5-yloxy}-benzamide] | – | – | 13.5 fold | – | – |
| O=C(Nc1ncc(F)s1)[C@H](CC1CCOCC1)c1ccc(S(=O)(=O)C2CC2)cc1 [PSN-GK1] | – | – | – | hypoglycemic potential is seen | – |
| Ro-28-1675 | – | – | – | – | cause hypoglycemia |

Further lines, with some results ahead:

| EC50 [1] | Emax [1] | Compound | Fold increase in glycogen synthesis at 10 µM [2] | hypoglycemic potential ([3]; at higher dose, Fyfe, M. C. T. (2007) Diabetologia, 50: 1277-1287) | hypoglycemia ([3]; animal efficacy models, Kamata, K. et al (2004) Structure 12: 429-438) |
| --- | --- | --- | --- | --- | --- |
| 0.045 µM | 91% | O=C(O)c1ccc(Oc2cnc(NC(=O)C(OC3CCOCC3)c3ccc(S(=O)(=O)C4CC4)cc3)s2)c(F)c1 (stereo not shown) [Example B34, 4-{2-[2-(4-Cyclopropanesulfonyl-phenyl)-2-(tetrahydropyran-4-yloxy)-acetylamino]-thiazol-5-yloxy}-3-fluorobenzoic acid] | – | – | – |
| 0.1 µM | 75% | O=C(O)c1ccc2nc(NC(=O)C(OC3CCOCC3)c3ccc(S(=O)(=O)C4CC4)cc3)sc2c1 (stereo not shown) [Example B41, 2-[2-(4-Cyclopropanesulfonyl-phenyl)-2-(tetrahydro-pyran-4-yloxy)-acetylamino]-benzothiazole-6-carboxylic acid] | – | – | – |
| 0.099 µM | 88% | O=C(Nc1ncc(Oc2ccc(-c3nn[nH]n3)cc2)s1)C(OC1CCOCC1)c1ccc(S(=O)(=O)C2CC2)cc1 (stereo not shown) [Example E1, 2-(4-Cyclopropanesulfonyl-phenyl)-2-(tetrahydro-pyran-4-yloxy)-N-{5-[4-(2H-tetrazol-5-yl)-phenoxy]-thiazol-2-yl}-acetamide] | – | – | – |
| 0.1 µM | 91% | O=C(Nc1ncc(Oc2ccc(CO)cc2)s1)C(OC1CCOCC1)c1ccc(S(=O)(=O)C2CC2)cc1 (stereo not shown) [Example F1, 2-(4-Cyclopropanesulfonyl-phenyl)-N-[5-(4-hydroxymethyl-phenoxy)-thiazol-2-yl]-2-(tetrahydro-pyran-4-yloxy)-acetamide] | – | – | – |

Source: patent publication EP2402327B1, “Acetamide compounds as glucokinase activators, their process and medicinal applications” (Impetis Biosciences Ltd., priority 2010, dated 2012)
